Some results are limits rather than exact numbers.

The text below walks through data of US20130158075A1, “HETEROCYCLIC COMPOUNDS AS DGAT1 INHIBITORS” (PIRAMAL ENTERPRISES LIMITED, priority 2010, published 2013).

One assay deals with T1, hDGAT1 (Homo sapiens, UniProt O75907).
T1 construct: made in house; host or cells: Sf9 insect cells (baculovirus); microsomal fraction
T1 sequence (O75907 1-488): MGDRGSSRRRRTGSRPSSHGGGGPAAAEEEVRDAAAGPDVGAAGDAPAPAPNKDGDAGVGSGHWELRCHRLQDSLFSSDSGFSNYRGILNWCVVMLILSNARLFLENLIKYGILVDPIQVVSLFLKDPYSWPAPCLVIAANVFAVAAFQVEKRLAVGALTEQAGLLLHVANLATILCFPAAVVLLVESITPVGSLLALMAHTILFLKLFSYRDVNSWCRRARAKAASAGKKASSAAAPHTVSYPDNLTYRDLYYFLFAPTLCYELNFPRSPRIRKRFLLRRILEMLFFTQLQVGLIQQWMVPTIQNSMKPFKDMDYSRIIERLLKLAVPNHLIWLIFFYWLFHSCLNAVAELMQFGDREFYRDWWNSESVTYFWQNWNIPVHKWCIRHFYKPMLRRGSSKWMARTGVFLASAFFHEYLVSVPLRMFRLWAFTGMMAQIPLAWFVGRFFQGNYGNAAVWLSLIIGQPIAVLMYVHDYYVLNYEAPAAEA
Kind of assay: In-vitro DGAT1 assay with hDGAT1 microsomes from Sf9 cells (14C oleoyl CoA, scintillation counting). It is filed as biochemical. Conditions: at 1 μM. As to the method:
Sf9 cells were grown in T25 flasks containing Graces's Insect media with 10% FBS with antibiotic (100 units/mL penicillin, 100 μg/mL streptomycin sulphate, 0.25 μg/mL Amptotericin B as Fungizone) grown in a 27° C. incubator.
hDGAT10RF expression clone (RZPDo839C09146 in pDEST vector) was obtained from RZPD, German Science Center for Genomes research, Germany. hDGAT1 bacmid DNA was obtained by transformation of the hDGAT1 expression clone into DH10Bac E. coli competent cells. Approximately 1 μg of hDGAT1 bacmid DNA was infected into Sf9 cells with Cellfectin (Invitrogen) reagent. Following infection, Sf9 cells were incubated at 27° C. for 30 min. Five hours after infection, the media was replaced with growth media containing antibiotics (100 units/mL penicillin, 100 μg/mL streptomycin sulphate, 0.25 μg/mL Amptotericin B as Fungizone) and incubated at 27° C. for 72 h. The supernatant containing the virus was centrifuged at 1500×g for 5 min, passed through 0.22 μm filter, and subsequently stored at 4° C. The virus was further amplified three more times by re-infection of Sf9 cells and the viral titer was determined by plaque assay.
Sf9 cells were seeded in spinner flasks on day 0 at a cell density of 1×10^6 and infected on day 1 with hDGAT1 baculovirus at a multiplicity of infection (MOI) of 5 and a cell density of 2×10^6. On day 3 (or 66-72 h), cells were harvested and centrifuged at 2500×g for 10 min. Pellet was resuspended in lysis buffer (100 mM sucrose, 50 mM KCl, 40 mM KH2PO4, 30 mM EDTA, pH 7.2) and passed through 21-gauge needle approximately 10 times. The mixture was centrifuged at 12,000 rpm in a Sigma 12158-H rotor at 4° C. for 30 min. The supernatant was subjected to centrifugation at 35,000 rpm in a Beckman Ti-45 rotor at 4° C. for 1 h. The resultant pellet containing the microsomes wasere resuspended overnight in 1 mL of lysis buffer and total protein concentration was estimated using Bradford Reagent. Microsomes were aliquoted and stored at −80° C.
Frozen aliquots of hDGAT1 containing microsomes were thawed (5-10 mg/mL total protein) on ice and diluted to a working stock of 1 mg/mL with DGAT Assay Buffer (DAB). The DGAT reaction assay was performed by following the procedure described in U.S. Pat. No. 6,607,893 with some modifications that are described below.
1 mL stock solution of DGAT1 substrate mixture contains 5.6 μL of ^14C oleoyl CoA (16.8 nCi) and […] of 1,2-dioleoyl-sn-glycerol (1228.5 μM) 1,2-dioleoyl-sn-glycerol stock (19.5 mM) was prepared by dissolving 25 mg of 1,2-dioleoyl-sn-glycerol (Sigma, US) in 2060 μL of acetone.
The assay was performed in duplicates in a reaction volume of 100 μL.
The reaction was started by the addition of 2.5 μL of 1 mg/mL of microsomes (iv) to the mixture of (i), (ii) and (iii), and incubated at 37° C. for 10 min. The reaction was stopped by the addition of 300 μL of Alkaline Ethanol Stop Solution Mix [AESSM; 12.5% of 100% non-denatured ethanol, 10% deionized water, 2.5% 1N NaOH, 75% stop solution (78.4% isopropanol, 19.6% n-heptane, 2% deionized water)] followed by addition of 600 μL of n-heptane. The mixture was vortexed and the triglycerides formed were extracted into the organic heptane phase. 250 μL of the heptane phase was added into 4 mL scintillation cocktail (66.72% toluene, 33.3% TritonX-100, 0.5% PPO, 0.02% POPOP) and counted on a liquid scintillation counter for 1 min. Data was collected and plotted as a function of concentration in nM versus percentage inhibition of hDGAT1 by the compounds of present invention.
Consider `O=C(O)CCCc1ncc(-c2ccc(NC(=O)c3ccc(-c4ccccc4)cc3)cc2)s1` [Example 61, 4-(5-(4-Biphenyl-4-ylcarboxamidophenyl)thiazol-2-yl)butanoic acid], for which the “Percentage inhibition of hDGAT1” value is “++ (>50 % Inhibition)”.

On to `CC(C)(CC(=O)O)Cc1ncc(-c2ccc(NC(=O)c3ccc(-c4ccccc4)cc3)cc2)s1` [Example 77, 4-(5-(4-Biphenyl-4-ylcarboxamidophenyl)thiazol-2-yl)-3,3-dimethylbutanoic acid], for which the “Percentage inhibition of hDGAT1” value is recorded as “++ (>50 % Inhibition)”.

Turning to `COC(=O)C(C)(C)CCc1ncc(-c2ccc(NC(=O)Nc3ccc(F)cc3)cc2)s1` [Example 96, Methyl 4-(5-(4-(3-(4-fluorophenyl)ureido)phenyl)thiazol-2-yl-2,2-dimethyl butanoate], the “Percentage inhibition of hDGAT1” value is “++ (>50 % Inhibition)”.

As to `CC(C)(CCc1ncc(-c2ccc(NC(=O)c3ccc(-c4ccccc4)cc3)cc2)s1)C(=O)O` [Example 108, 4-(5-(4-Biphenyl-4-ylcarboxamidophenyl)thiazol-2-yl)-2,2-dimethylbutanoic acid], the “Percentage inhibition of hDGAT1” value was “++ (>50 % Inhibition)”.

For the molecule `CC(C)(Cc1ncc(-c2ccc(NC(=O)c3ccc(-c4ccccc4)cc3)cc2)o1)C(=O)O` [Example 128, 3-(5-(4-Biphenyl-4-ylcarboxamidophenyl)oxazol-2-yl)-2,2-dimethylpropanoic acid], the “Percentage inhibition of hDGAT1” value is recorded as “+ (20-50% Inhibition)”.

The same assay, now with this note: read-out: Percentage inhibition of hDGAT1.
As usually defined, the inhibition is how much of the control response was suppressed. As for `COc1ccc(S(=O)(=O)Nc2ccc(-c3cnc(CCCC(=O)O)s3)cc2)c(OC)c1` [Example 63, 4-(5-(4-(2,4-Dimethoxyphenylsulfonamido)phenyl)thiazol-2-yl)butanoic acid], the inhibition at 1 µM lay in the range of 20 to 50%.

Turning to `CC(C)(CC(=O)O)Cc1ncc(-c2ccc(NC(=O)Nc3cccc(C(F)(F)F)c3)cc2)s1` [Example 69, 3,3-Dimethyl-4-(5-(4-(3-(3-(trifluoromethyl)phenyl)ureido)phenyl)thiazol-2-yl)butanoic acid], the inhibition at 1 µM is over 50%.

For the molecule `CC(C)(CC(=O)O)Cc1ncc(-c2ccc(NC(=O)Nc3ccccc3Cl)cc2)s1` [Example 71, 4-(5-(4-(3-(2-Chlorophenyl)ureido)phenyl)thiazol-2-yl)-3,3-dimethyl butanoic acid], the inhibition at 1 µM is over 50%.

Regarding `CC(C)(CC(=O)O)Cc1ncc(-c2ccc(NC(=O)Nc3ccc(Cl)cc3Oc3ccccc3)cc2)s1` [Example 73, 4-(5-(4-(3-(4-Chloro-2-phenoxyphenyl)ureido)phenyl)thiazol-2-yl)-3,3-dimethyl butanoic acid], the inhibition at 1 µM was over 50%.

In the case of `CC(C)(CC(=O)O)Cc1ncc(-c2ccc(NC(=O)c3ccc(C(C)(C)C)cc3)cc2)s1` [Example 75, 4-(5-(4-(4-tert-Butylbenzamido)phenyl)thiazol-2-yl)-3,3-dimethylbutanoic acid], the inhibition at 1 µM was over 50%.

As to `CCCCCc1ccc(C(=O)Nc2ccc(-c3cnc(CC(C)(C)CC(=O)O)s3)cc2)cc1` [Example 79, 3,3-Dimethyl-4-(5-(4-(4-pentylbenzamido)phenyl)thiazol-2-yl)butanoic acid], the inhibition at 1 µM was over 50%.

Consider `COc1ccc(S(=O)(=O)Nc2ccc(-c3cnc(CC(C)(C)CC(=O)O)s3)cc2)c(OC)c1` [Example 81, 4-(5-(4-(2,4-Dimethoxyphenylsulfonamido)phenyl)thiazol-2-yl)-3,3-dimethylbutanoic acid], for which the inhibition at 1 µM lay in the range of 20 to 50%.

Consider `CC(C)(CCc1ncc(-c2ccc(NC(=O)Nc3cccc(C(F)(F)F)c3)cc2)s1)C(=O)O` [Example 88, 2,2-Dimethyl-4-(5-(4-(3-(3-(trifluoromethyl)phenyl)ureido)phenyl)thiazol-2-yl)butanoic acid], for which the inhibition at 1 µM is over 50%.

As to `CC(C)(CCc1ncc(-c2ccc(NC(=O)Nc3ccccc3Cl)cc2)s1)C(=O)O` [Example 90, 4-(5-(4-(3-(2-Chlorophenyl)ureido)phenyl)thiazol-2-yl)-2,2-dimethylbutanoic acid], the inhibition at 1 µM is over 50%.

In the case of `CC(C)(CCc1ncc(-c2ccc(NC(=O)Nc3ccc(Cl)cc3Oc3ccccc3)cc2)s1)C(=O)O` [Example 92, 4-(5-(4-(3-(4-Chloro-2-phenoxyphenyl)ureido)phenyl)thiazol-2-yl)-2,2-dimethylbutanoic acid], the inhibition at 1 µM is over 50%.

With `CC(C)(CCc1ncc(-c2ccc(NC(=O)NC3CCCCC3)cc2)s1)C(=O)O` [Example 94, 4-(5-(4-(3-Cyclohexylureido)phenyl)thiazol-2-yl)-2,2-dimethyl butanoic acid], the inhibition at 1 µM was over 50%.

In the case of `COc1ccc(NC(=O)Nc2ccc(-c3cnc(CCC(C)(C)C(=O)O)s3)cc2)cc1` [Example 98, 4-(5-(4-(3-(4-Methoxyphenyl)ureido)phenyl)thiazol-2-yl)-2,2-dimethyl butanoic acid], the inhibition at 1 µM was over 50%.

Regarding `CC(C)(CCc1ncc(-c2ccc(NC(=O)c3ccc(C(C)(C)C)cc3)cc2)s1)C(=O)O` [Example 106, 4-(5-(4-(4-tert-Butylbenzamido)phenyl)thiazol-2-yl)-2,2-dimethylbutanoic acid], the inhibition at 1 µM was over 50%.

For the molecule `CC(C)(Cc1ncc(-c2ccc(NC(=O)Nc3ccc(Cl)cc3Oc3ccccc3)cc2)o1)C(=O)O` [Example 124, 3-(5-(4-(3-(4-Chloro-2-phenoxyphenyl)ureido)phenyl)oxazol-2-yl)-2,2-dimethyl propanoic acid], the inhibition at 1 µM is over 50%.

As for `O=C(Nc1ccc(-c2cnc(C3CCC(C(=O)O)CC3)s2)cc1)Nc1cccc(C(F)(F)F)c1` (stereo not drawn) [Example 134, 4-(5-(4-(3-(3-(Trifluoromethyl)phenyl)ureido)phenyl)thiazol-2-yl)cyclohexane carboxylic acid], the inhibition at 1 µM is over 50%.

Take `Cc1ccc(NC(=O)Nc2ccc(-c3cnc(C4CCC(C(=O)O)CC4)s3)cc2)cc1` (stereo not drawn) [Example 136, 4-(5-(4-(3-p-Tolylureido)phenyl)thiazol-2-yl)cyclohexanecarboxylic acid]: the inhibition at 1 µM was over 50%.

`O=C(Nc1ccc(-c2cnc(C3CCC(C(=O)O)CC3)s2)cc1)Nc1ccc(F)cc1F` (stereo not drawn) [Example 138, 4-(5-(4-(3-(2,4-Difluorophenyl)ureido)phenyl)thiazol-2-yl)cyclohexane carboxylic acid]: the inhibition at 1 µM is over 50%.

Take `O=C(Nc1ccc(-c2cnc(C3CCC(C(=O)O)CC3)s2)cc1)Nc1ccccc1F` (stereo not drawn) [Example 140, 4-(5-(4-(3-(2-Fluorophenyl)ureido)phenyl)thiazol-2-yl)cyclohexanecarboxylic acid]: the inhibition at 1 µM is over 50%.

In the case of `O=C(Nc1ccc(-c2cnc(C3CCC(C(=O)O)CC3)s2)cc1)NC1CCCCC1` (stereo not drawn) [Example 142, 4-(5-(4-(3-Cyclohexylureido)phenyl)thiazol-2-yl)cyclohexanecarboxylic acid], the inhibition at 1 µM is over 50%.
